“Also recorded” adds a separate entry of the source. Strand notation (5' to 3'): a small letter for the sugar, then the base; units joined by * are phosphorothioate-linked, units joined directly phosphodiester-linked; [ ] holds rarer units or linkages, { } end groups; capitals alone tell only the bases. [5IU] = 5-iodo-2'-deoxyuridine; [HEG] = Spacer 18, hexaethylene glycol phosphate; [TEG] = Spacer 9, triethylene glycol phosphate; [2doub] = Doubler2 branching unit (Chemgenes); [6NB] = 6-nitro-benzimidazol nucleoside; [5BrU] = 5-bromo-2'-deoxyuridine (BU); d = 2'-deoxy (DNA); m = 2'-O-methyl

The data set has as its target T1, human TLR9 (Homo sapiens, UniProt Q9NR96).
T1 construct: expressed in transfected cells
T1 sequence (Q9NR96 26-1032): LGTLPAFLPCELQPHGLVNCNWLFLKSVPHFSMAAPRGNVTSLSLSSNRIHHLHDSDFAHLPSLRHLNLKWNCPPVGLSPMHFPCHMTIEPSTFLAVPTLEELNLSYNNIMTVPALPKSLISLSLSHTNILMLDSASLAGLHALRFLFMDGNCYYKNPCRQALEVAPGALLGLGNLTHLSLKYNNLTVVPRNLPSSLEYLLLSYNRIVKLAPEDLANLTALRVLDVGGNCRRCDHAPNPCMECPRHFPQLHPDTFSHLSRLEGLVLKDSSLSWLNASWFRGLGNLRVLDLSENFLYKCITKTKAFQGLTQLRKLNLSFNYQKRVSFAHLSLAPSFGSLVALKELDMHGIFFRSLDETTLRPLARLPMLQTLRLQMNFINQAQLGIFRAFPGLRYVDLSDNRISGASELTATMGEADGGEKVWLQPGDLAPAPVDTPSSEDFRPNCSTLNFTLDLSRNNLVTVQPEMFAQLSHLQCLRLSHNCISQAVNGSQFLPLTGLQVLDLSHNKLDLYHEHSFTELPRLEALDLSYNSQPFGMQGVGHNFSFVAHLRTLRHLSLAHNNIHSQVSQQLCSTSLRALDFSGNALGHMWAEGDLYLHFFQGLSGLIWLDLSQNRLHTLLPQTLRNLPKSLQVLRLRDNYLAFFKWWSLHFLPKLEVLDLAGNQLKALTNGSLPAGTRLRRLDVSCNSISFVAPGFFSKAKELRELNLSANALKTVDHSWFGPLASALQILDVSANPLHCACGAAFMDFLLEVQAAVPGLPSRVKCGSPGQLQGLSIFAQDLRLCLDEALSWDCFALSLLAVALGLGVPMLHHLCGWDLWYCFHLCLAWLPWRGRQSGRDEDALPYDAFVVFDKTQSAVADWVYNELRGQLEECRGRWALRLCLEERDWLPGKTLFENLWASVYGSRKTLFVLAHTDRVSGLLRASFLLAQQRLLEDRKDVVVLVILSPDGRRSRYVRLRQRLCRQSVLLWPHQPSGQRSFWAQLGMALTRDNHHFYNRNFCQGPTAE
The data set can be described thus: TLR9 luciferase assay (NF-κB reporter) in hTLR9-LUC-293 cells. The format is cell-based. Conditions: 16 h, stated in words relative to the comparator ODN. The method, then:
HEK293 cells were transfected by electroporation with vectors expressing the respective human TLR and a 6xNF-κB-luciferase reporter plasmid. Stable transfectants (3×10^4 cells/well) were incubated indicated amounts of ODN for 16 h at 37° C. in a humidified incubator. Each data point was done in triplicate. Cells were lysed and assayed for luciferase gene activity (using the BriteLite kit from Perkin-Elmer, Zaventem, Belgium). Stimulation indices were calculated in reference to reporter gene activity of medium without addition of ODN.
On to “T*G*CU*C-G*T*T*T*T*T*T*T*T*T*T*T*T*T*T*T (DNA TGNCGTTTTTTTTTTTTTTT; CU modification, chemistry not fully specified) [SEQ ID NO:41]”, for which the “TLR9 stimulation (NF-κB luciferase activity, relative stimulation index)” value is reported as “greater stimulation of TLR9 activity over control”.
Regarding “T*C*G*JU*C-G*JU*T*T*T*A*C*G*G*C*G*C*C*G*T*G*C*C*G (DNA dT*dC*dG*d[5IU]*dCdG*d[5IU]*dT*dT*dT*dA*dC*dG*dG*dC*dG*dC*dC*dG*dT*dG*dC*dC*dG) [SEQ ID NO:45]”, the “TLR9 stimulation (NF-κB luciferase activity, relative stimulation index)” value was “increased stimulation of TLR9 above unmodified A and C class”.
Then G*JU*C-G*JU*T-hex [SEQ ID NO:126], with “greatly enhanced the activity”; and “T*C*T*T*T*T*T*T*G*U*C-G*T*T*T*T*T*T*T*T*T*T (DNA dT*dC*dT*dT*dT*dT*dT*dT*dG*dU*dCdG*dT*dT*dT*dT*dT*dT*dT*dT*dT*dT) [SEQ ID NO:51, U-modified T class]”, with “reduced stimulation of TLR9”.
Then “T*G*JU*C-I*T*T*T*T*T*T*T*T*T*T*T*T*T*T*T (DNA TGUCNTTTTTTTTTTTTTTT; DNA at 3, [5IU] at 3, linkages s3 o1 s15 (s phosphorothioate, o phosphodiester), other sugars and the base at N not given here; position 5 is inosine) [SEQ ID NO:139, B-class with inosine (I)]”, with “more active in the assay than the parent ODN”.
For “T*G*6NB*C-G*T*T*T*T*T*T*T*T*T*T*T*T*T*T*T (DNA TGNCGTTTTTTTTTTTTTTT; DNA at 1, 2, 4, 5, 6, 7, 8, 9, 10, 11, 12, 13, 14, 15, 16, 17, 18, 19, 20, [6NB] at 3, linkages s3 o1 s15 (s phosphorothioate, o phosphodiester), other sugars not given here; further chemistry not fully specified) [SEQ ID NO:178, B-class with 6-nitro-benzimidazol (6NB)]”, the “TLR9 stimulation (NF-κB luciferase activity, relative stimulation index)” value is “comparable with the unmodified parent sequence”.
Then “T*G*T*C-G*PU*T*T*T*T*T*T*T*T*T*T*T*T*T*T (DNA TGTCGNTTTTTTTTTTTTTT; 5-propynyl-dU, chemistry not fully specified) [SEQ ID NO:117, B-class with 5-proynyl-dU (PU)]”, with “activity comparable to that of the parent sequence”.
The result for “T*G*JU*C-E*T*T*T*T*T*T*T*T*T*T*T*T*T*T*T (DNA TGNCNTTTTTTTTTTTTTTT; JU, 7-deaza-dG, chemistry not fully specified) [SEQ ID NO:138, B-class with 7-deaza-dG (E)]” reads “more active in the assay than the parent ODN”; that for “T*G*EU*C-G*EU*T*T*T*T*T*T*T*T*T*T*T*T*T*T (DNA TGNCGNTTTTTTTTTTTTTT; EU modifications, chemistry not fully specified) [SEQ ID NO:30]”, “significant increase in TLR9 activation”.
The result for “(JU*C*G*T*T*C*G*L*)2doub-3mG (DNA NCGTTCGNNN; JU, 3'3'-branched doubler, chemistry not fully specified) [SEQ ID NO:97]” reads “as active or more active than the unmodified SEQ ID NO:1”.
On to “T*G*JU*C-mG*T*T*T*T*T*T*T*T*T*T*T*T*T*T*T (DNA dT*dG*d[5IU]*dCmG*dT*dT*dT*dT*dT*dT*dT*dT*dT*dT*dT*dT*dT*dT*dT) [SEQ ID NO:112, 2′-O-methyl-modified B-class]”, for which the “TLR9 stimulation (NF-κB luciferase activity, relative stimulation index)” value is reported as “slightly more active”.
Then “(JU*C*G*T*T*C*G*L*)2doub-teg (DNA d[5IU]*dC*dG*dT*dT*dC*dG*[HEG]*[2doub][TEG]; some compounds branched: two arms joined via doubler and TEG) [SEQ ID NO:102, 3′3′-branched]”, with “as active or more active than the unmodified SEQ ID NO:1; also recorded: more active than SEQ ID NO:96 AND 97”.
Then “(T*G*JU*C-G*T*T*L*)2doub-3mG (DNA TGNCGTTNNN; JU, 3'3'-branched doubler, chemistry not fully specified) [SEQ ID NO:96]”, with “as active or more active than the unmodified SEQ ID NO:1”; and “T*G*U*C-G*T*T*T*T*T*T*T*T*T*T*T*T*T*T*T (DNA dT*dG*dU*dCdG*dT*dT*dT*dT*dT*dT*dT*dT*dT*dT*dT*dT*dT*dT*dT) [SEQ ID NO:16]”, with “dramatically decreased activity”.
In the case of “T*C-G-A-C-G-JU-C-G-T-G-G*G*G*G (DNA dT*dCdGdAdCdGd[5IU]dCdGdTdGdG*dG*dG*dG) [SEQ ID NO:35, JU-modified A class]”, the “TLR9 stimulation (NF-κB luciferase activity, relative stimulation index)” value is “increased stimulation of TLR9 above unmodified A and C class”.
Then “T*mG*JU*C-mG*T*T*T*T*T*T*T*T*T*T*T*T*T*T*T (DNA dT*mG*d[5IU]*dCmG*dT*dT*dT*dT*dT*dT*dT*dT*dT*dT*dT*dT*dT*dT*dT) [SEQ ID NO:113, 2′-O-methyl-modified B-class]”, with “slightly more active”; and “T*G*BVU*C-G*T*T*T*T*T*T*T*T*T*T*T*T*T*T*T (DNA TGNCGTTTTTTTTTTTTTTT; listed as DNA, chemistry not fully specified) [SEQ ID NO:153, B-class with 5-(2-bromo-vinyl)-uridine (BVU)]”, with “more active in the assay than the parent sequence”; and “JU*C-G*JU*C*G*T*T*T*T*A*C*G*G*C*G*C*C*G*T*G*C*C*G (DNA d[5IU]*dCdG*d[5IU]*dC*dG*dT*dT*dT*dT*dA*dC*dG*dG*dC*dG*dC*dC*dG*dT*dG*dC*dC*dG) [SEQ ID NO:44]”, with “increased stimulation of TLR9 above unmodified A and C class”.
In the case of “T*G*EU*C-G*T*T*T*T*T*T*T*T*T*T*T*T*T*T*T (DNA TGNCGTTTTTTTTTTTTTTT; EU modification, chemistry not fully specified) [SEQ ID NO:42]”, the “TLR9 stimulation (NF-κB luciferase activity, relative stimulation index)” value is given as “greater stimulation of TLR9 activity over control; also recorded: significant increase in TLR9 activation”.
Then “T*G*BU*C-G*T*T*T*T*T*T*T*T*T*T*T*T*T*T*T (DNA dT*dG*d[5BrU]*dCdG*dT*dT*dT*dT*dT*dT*dT*dT*dT*dT*dT*dT*dT*dT*dT) [SEQ ID NO:10]”, with “greater stimulation of TLR9 activity over control”; and “T*G*T*C-G*BVU*T*T*T*T*T*T*T*T*T*T*T*T*T*T (DNA TGTCGNTTTTTTTTTTTTTT; listed as DNA, chemistry not fully specified) [SEQ ID NO:154, B-class with 5-(2-bromo-vinyl)-uridine (BVU)]”, with “more active in the assay than the parent sequence”.

For the origin of these results see patent US8580268B2, “CpG oligonucleotide analogs containing hydrophobic T analogs with enhanced immunostimulatory activity” (Coley Pharmaceutical GmbH, priority 2006, dated 2013).
